Data published in patent publication US20240058240A1, “COMPOUNDS AS SELF-TANNING SUBSTANCES AND TANNING COMPOSITIONS THEREOF” (CHEMCOM S.A., priority 2020, published 2024).

Target: T1, OR7C1 (Homo sapiens, UniProt O76099)
T1 construct: transfected with a plasmid containing the CRE-luciferase and a plasmid containing the olfactory receptor; expressed in transfected cells; host or cells: HEK293T-RTP1A1/RTP2 (HEK293T stably expressing the chaperones RTP1A1 and RTP2)
T1 sequence (O76099 1-320): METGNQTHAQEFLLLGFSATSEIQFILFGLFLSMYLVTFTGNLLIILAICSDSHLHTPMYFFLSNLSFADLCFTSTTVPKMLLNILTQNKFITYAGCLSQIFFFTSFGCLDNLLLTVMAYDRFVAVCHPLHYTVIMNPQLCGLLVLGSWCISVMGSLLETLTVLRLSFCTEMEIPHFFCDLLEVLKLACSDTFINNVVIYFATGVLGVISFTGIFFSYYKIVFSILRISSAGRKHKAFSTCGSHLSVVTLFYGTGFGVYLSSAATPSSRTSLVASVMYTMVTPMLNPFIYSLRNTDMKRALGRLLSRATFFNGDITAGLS
Experiment: Luciferase-based CRE gene reporter assay, dose-response on OR7C1
Type: cell-based
Settings: negative logarithm of the EC50 in Moles, semi-logarithmic dilutions from 1 mM to 316 nM on OR7C1; for EC50: read-out: -LogEC50 (average n > 3) (converted)
Procedure: HEK293T-RTP1A1/RTP2 cells were maintained in minimal essential medium (EMEM, Lonza) containing 10% fetal bovine serum (M10). These cells were generated by transfecting HEK293T (Thermofisher Scientific, cat ref: R70007) with an expression vector containing the sequences of the chaperone proteins RTP1A1 and RTP2 and a resistance gene to puromycin, using Lipofectamine 2000. The recombinant cell population, used in these experiments, was selected by adding 10 μg/ml of puromycin into the culture medium and subsequently subcloned (WO 2014/191047 A1).
Potential OR7C1 agonists were diluted at a concentration of 1 mole/liter (M) into an organic solvent such as Dimethyl Sulfoxide (DMSO) or Ethanol to generate stock solutions. […]
For concentration-response analysis, serial dilutions of the tested molecules were prepared from stock solutions in EMEM plated into 96-well plates.
For the dose-response analysis, a Luciferase-based gene reporter assay (Promega, Leiden, the Netherlands) was used. Briefly, cells were platted on poly-D-lysine-coated 96-well plates and transfected with a plasmid containing the CRE-luciferase and a plasmid containing the olfactory receptor. Sixteen hours after transfection, the culture medium was replaced by serum-free EMEM containing the tested compounds at a determined concentration. After four hours of incubation at 37° C., cells were lysed and processed for luminescence measurement. Luminescence emission was recorded. Results were expressed as luciferase activity ([…] (RLU)) or as percentage of the response induced by 10 μM of the adenylate cyclase activator Forskolin. An empty plasmid is used as negative control.
Dose-response analyses using the luciferase-based reporter assay were performed using semi-logarithmic serial dilutions of the compounds, from 1 mM to 316 nM, on OR7C1. 46 compounds were tested in concentration-response analyses. In each experiment, an empty vector (pEFIBRHO) was used as negative control. Values are given as the negative logarithm of the EC50 in Moles.

Compound	EC50 [µM]	-LogEC50 (average n > 3)
CC(=O)OCC1CCC(C)(C)C23CC4C[C@H]2C13C4(C)C (stereo partly shown) [Compound 19, Amboryl acetate]	63.1	
CC1(C)CCC[C@]2(C)[C@H]3CCO[C@]3(C)CC[C@@H]12 [Compound 18, Ambroxan or (−)-Ambroxide]	31.6	
CCC12CCC3C(C)(C)CCCC3(C)C1COC2 (stereo not shown) [Compound 3, Grisalva]	25.1	
CCC(O)COC1C(C)CCCC1(C)C (mixture of isomers) [Compound 15, 1-((2,2,6-trimethylcyclohexyl)oxy)butan-2-ol]	126	
CC(=O)C1(C)CC2=C(CCCC2(C)C)CC1C (stereo not shown) [Compound 34, Sylvamber]	25.1	
COC[C@@H](C)C1=C2C(C)(C)[C@H]3CC[C@@]2(C3)C(C)(C)CC1 (stereo in doubt) [Compound 26, 5-(1-Methoxypropan-2-yl)-2,2,7,7-tetramethyltricyclo[6.2.1.01,6]undec-5-ene]	2.51	
CC(C)[C@H]1OCC[C@]2(CC3CC[C@]2(C)C3(C)C)O1 [Compound 9, Belambre]	1.58	
CC1O[C@@]12CC[C@H]1C(C)(C)CCC[C@]1(C)[C@H]2C (stereo partly shown) [Compound 35, 3′,4,4,8,8a-Pentamethylspiro[2,3,4a,5,6,8-hexahydro-1H-naphthalene-7,2′-oxirane]]	31.6	
Hydroxyambran [Compound 41]		5.5
CCCC(O)COC1C(C)CCCC1(C)C (mixture of isomers) [Compound 14, 1-((2,2,6-trimethylcyclohexyl)oxy)pentan-2-ol]	126	
CCC(CO)C1=C2C(C)(C)[C@H]3CC[C@@]2(C3)C(C)(C)CC1 (stereo partly shown) [Compound 27, 5-(1-Hydroxybutan-2-yl)isolongifol-5-ene]	3.16	
CC1OCC(C)C2(CC3CCC2(C)C3(C)C)O1 (stereo not shown) [Compound 11, 1′,2,5,7′,7′-Pentamethylspiro[1,3-dioxane-4,2′-bicyclo[2.2.1]heptane]]	2	
CCCC(O)CCC1C(C)CCCC1(C)C (stereo not shown) [Compound 1, Norlimbanol]	3.98	
CCC(COC)C1=CCC(C)(C)[C@@]23CC[C@@H](C2)C(C)(C)C13 (stereo partly shown) [Compound 31, 5-(1-methoxybutan-2-yl)isolongifol-4-ene]	3.98	
CC1(C)C2C(=O)CCC(C)(C)[C@]23CC[C@H]1C3 (stereo partly drawn) [Compound 32, (1S,8S)-2,2,7,7-Tetramethyltricyclo[6.2.1.01,6]undecan-5-one]	20	
CC(O)C(C)C1=C2C(C)(C)[C@H]3CC[C@@]2(C3)C(C)(C)CC1 (stereo partly shown) [Compound 22, 5-(3-Hydroxybutan-2-yl)isolongifol-5-ene]	1.58	

Continued, in another order:

EC50 [µM]	Compound	-LogEC50 (average n > 3)
20	CC1O[C@@]12CC[C@H]1C(C)(C)CCC[C@]1(C)C2 (stereo partly shown) [Compound 36, 3′,4,4,8a-Tetramethylspiro[2,3,4a,5,6,8-hexahydro-1H-naphthalene-7,2′-oxirane]]	
50.1	CC1(C)CCC[C@]2(C)C[C@]3(CCC12)CO3 (stereo in doubt) [Compound 38, 4,4,8a-Trimethylspiro[2,3,4a,5,6,8-hexahydro-1H-naphthalene-7,2′-oxirane]]	
20	C[C@]12CCC(=O)C[C@@H]1CC[C@@H]1[C@@H]2CC[C@]2(C)C=CC[C@@H]12 [Compound 45, 5α-Androst-16-en-3-one]	
501	C[C@H]1[C@]2(CCC3C(C)(C)CCC[C@@]31C)CO2 (stereo partly shown) [Compound 37, 4,4,8,8a-Tetramethylspiro[2,3,4a,5,6,8-hexahydro-1H-naphthalene-7,2′-oxirane]]	
50.1	CCOCOC1CCCCCCCCCCC1 [Compound 40, Boisambrene]	
2	CC1(C)C/C=C\CC/C=C\CCC2OC21C (stereo not shown) [Compound 43, Cedroxyde]	
7.94	C/C1=C/CCC2(C)OC2CC/C(C)=C\CC1 (stereo not shown) [Compound 44, (E)-woody epoxide]	
20	CC(=O)C1CC/C(C)=C\CC/C(C)=C\C/C=C\1C (stereo not shown) [Compound 42, Cyclisone/Trimofix]	
1.58	CC(CO)C1CCC(C)(C)[C@@]23CC[C@@H](C2)C(C)(C)C13 (stereo partly shown) [Compound 39, 5-(1-Hydroxypropan-2-yl)isolongifolane]	
